Measurements: ChEMBL document CHEMBL5576040, “Dipeptide-catalysed Michael reaction under physiological conditions: Examination of potential bioorthogonality” (Bioorg Med Chem, 2024)

Tested on: A2780
Assay: Anticancer activity against human A2780 cells assessed as inhibition of cell growth measured after 48 hrs by MTT assay
Assay type: functional, cell-based
Details: A2780, 48 h

IC50	Compound
> 100 µM	O=C1CCCC[C@H]1[C@@H](C[N+](=O)[O-])c1ccccc1
89 µM	O=C1CCCC[C@H]1[C@H](c1ccccc1)C(F)[N+](=O)[O-] (some centres not stated)
